Oligonucleotides are written 5' to 3', each unit as a sugar letter and its base; * is a phosphorothioate linkage, no mark a phosphodiester; rarer units and linkages stand in square brackets, end groups in braces. Plain capitals give the bases only. k = constrained ethyl (cEt); [5mC] = 5-methylcytosine; d = 2'-deoxy (DNA)
Experiments:
AR mRNA [1] = test: Antisense inhibition of human AR in HuVEC cells, single concentration (electroporation, qRT-PCR RTS3559); format: cell-based; conditions: ~24 h
Experimental: Antisense oligonucleotides were designed targeting an AR nucleic acid and were tested for their effects on AR mRNA in vitro. The antisense oligonucleotides were tested in a series of experiments that had similar culture conditions. […] Human primer probe set RTS3559 (forward sequence [NT], designated herein as SEQ ID NO: 9; reverse sequence [NT], designated herein as SEQ ID NO: 10; probe sequence [NT], designated herein as SEQ ID NO: 11) was used to measure mRNA levels. AR mRNA levels were adjusted according to total RNA content, as measured by RIBOGREEN®. […] A total of 155 oligonucleotides were tested. Additional antisense oligonucleotides were designed targeting an AR nucleic acid and were tested for their effects on AR mRNA in vitro. […] Human primer probe set RTS3559 was used to measure mRNA levels. AR mRNA levels were adjusted according to total RNA content, as measured by RIBOGREEN®. […] A total of 82 oligonucleotides were tested. Additional antisense oligonucleotides were designed targeting an AR nucleic acid and were tested for their effects on AR mRNA in vitro. […] Human primer probe set RTS3559 was used to measure mRNA levels. AR mRNA levels were adjusted according to total RNA content, as measured by RIBOGREEN®. […] A total of 40 oligonucleotides were tested. Additional antisense oligonucleotides were designed targeting an AR nucleic acid and were tested for their effects on AR mRNA in vitro. […] Human primer probe set RTS3559 was used to measure mRNA levels. AR mRNA levels were adjusted according to total RNA content, as measured by RIBOGREEN®. […] A total of 75 oligonucleotides were tested. Additional antisense oligonucleotides were designed targeting an AR nucleic acid and were tested for their effects on AR mRNA in vitro. […] Human primer probe set RTS3559 was used to measure mRNA levels. AR mRNA levels were adjusted according to total RNA content, as measured by RIBOGREEN®. […] A total of 616 oligonucleotides were tested. Additional antisense oligonucleotides were designed targeting an AR nucleic acid and were tested for their effects on AR mRNA in vitro. […] Human primer probe set RTS3559 was used to measure mRNA levels. AR mRNA levels were adjusted according to total RNA content, as measured by RIBOGREEN®. […] A total of 385 oligonucleotides were tested.

AR mRNA [2] = test: Dose-dependent antisense inhibition of human AR in HuVEC cells (electroporation, qRT-PCR RTS3559, IC50); format: cell-based; conditions: HuVEC, ~16 h
Experimental: (§1) After a treatment period of approximately 16 hours, RNA was isolated from the cells and AR mRNA levels were measured by quantitative real-time PCR. Human AR primer probe set RTS3559 was used to measure mRNA levels. AR mRNA levels were adjusted according to total RNA content, as measured by RIBOGREEN®. […] The antisense oligonucleotides were tested in a series of experiments that had similar culture conditions.
as §1, §1, §1, §1
(§2) After a treatment period of approximately 16 hours, RNA was isolated from the cells and AR mRNA levels were measured by quantitative real-time PCR. Human AR primer probe set RTS3559 was used to measure mRNA levels. AR mRNA levels were adjusted according to total RNA content, as measured by RIBOGREEN®.
as §2

[3] = 500 nM ASO, electroporation, Table 1
[4] = 500 nM ASO, electroporation, Table 2

Row | Substance | % inhibition (AR mRNA [1]; [3]) [%] | percent inhibition of AR (AR mRNA [2]; 55.6 nM, Table 3) [%] | percent inhibition of AR (AR mRNA [2]; 166.7 nM, Table 3) [%] | percent inhibition of AR (AR mRNA [2]; 500.0 nM, Table 3) [%] | percent inhibition of AR (AR mRNA [2]; 1500.0 nM, Table 3) [%] | IC50 (AR mRNA [2]; Table 3) [nM] | percent inhibition of AR (AR mRNA [2]; 55.6 nM, Table 4) [%] | percent inhibition of AR (AR mRNA [2]; 166.7 nM, Table 4) [%] | percent inhibition of AR (AR mRNA [2]; 500.0 nM, Table 4) [%] | percent inhibition of AR (AR mRNA [2]; 1500.0 nM, Table 4) [%] | IC50 (AR mRNA [2]; Table 4) [nM] | other results
1 | 549362 (k[5mC]*k[5mC]*k[5mC]*dG*dA*dA*dG*d[5mC]*dT*dG*dT*dT*d[5mC]*k[5mC]*k[5mC]*k[5mC]; antisense) [compound 549362] | 85 | 10 | 23 | 57 | 74 | 447 |  |  |  |  |  | 
2 | 549366 (k[5mC]*kT*kT*dG*d[5mC]*d[5mC]*dT*dG*d[5mC]*dG*d[5mC]*dT*dG*kT*k[5mC]*kG; antisense) [compound 549366] | 84 |  |  |  |  |  | 44 | 58 | 72 | 91 | 129 | 
3 | 549371 (kG*kT*kT*dG*dT*dA*dG*dT*dA*dG*dT*d[5mC]*dG*k[5mC]*kG*kA; antisense) [compound 549371] | 93 | 30 | 52 | 83 | 88 | 148 |  |  |  |  |  | 
4 | 549374 (kG*k[5mC]*kG*d[5mC]*dT*dG*d[5mC]*d[5mC]*dG*dT*dA*dG*dT*k[5mC]*k[5mC]*kA; antisense) [compound 549374] | 93 | 40 | 59 | 83 | 92 | 108 |  |  |  |  |  | 
5 | 549377 (kA*kG*kG*dA*dT*dG*dA*dG*dG*dA*dA*dG*d[5mC]*kG*kG*k[5mC]; antisense) [compound 549377] | 90 | 13 | 52 | 72 | 93 | 216 |  |  |  |  |  | 
6 | 549379 (kG*k[5mC]*kT*d[5mC]*d[5mC]*d[5mC]*dG*d[5mC]*d[5mC]*dT*d[5mC]*dG*d[5mC]*k[5mC]*kG*k[5mC]; antisense) [compound 549379] | 86 | 11 | 51 | 68 | 88 | 237 |  |  |  |  |  | 
7 | 549381 (kG*k[5mC]*k[5mC]*dG*d[5mC]*d[5mC]*dA*dG*dG*dG*dT*dA*d[5mC]*k[5mC]*kA*k[5mC]; antisense) [compound 549381] | 89 | 14 | 33 | 71 | 91 | 261 |  |  |  |  |  | 
8 | 549383 (k[5mC]*k[5mC]*kA*dA*dA*d[5mC]*dG*d[5mC]*dA*dT*dG*dT*d[5mC]*k[5mC]*k[5mC]*k[5mC]; antisense) [compound 549383] | 88 | 10 | 34 | 75 | 88 | 270 |  |  |  |  |  | 
9 | 549387 (kA*kG*k[5mC]*dT*dT*d[5mC]*dA*dT*d[5mC]*dT*d[5mC]*d[5mC]*dA*k[5mC]*kA*kG; antisense) [compound 549387] | 84 |  |  |  |  |  | 9 | 41 | 68 | 92 | 261 | 
10 | 549388 (kT*k[5mC]*k[5mC]*d[5mC]*dT*dT*d[5mC]*dA*dG*d[5mC]*dG*dG*d[5mC]*kT*k[5mC]*kT; antisense) [compound 549388] | 88 | 15 | 42 | 36 | 86 | 428 |  |  |  |  |  | 
11 | 549414 (kG*kT*kT*d[5mC]*dA*dT*dT*d[5mC]*dG*dA*dA*dG*dT*kT*k[5mC]*kA) [compound 549414] |  |  |  |  |  |  | 21 | 35 | 53 | 76 | 366 | % inhibition (AR mRNA [1]; [4]): 81%
12 | 549432 (kG*kA*kG*dG*dA*dT*d[5mC]*dA*dT*d[5mC]*dA*d[5mC]*dA*kG*kA*kT) [compound 549432] |  |  |  |  |  |  | 15 | 46 | 80 | 92 | 179 | % inhibition (AR mRNA [1]; [4]): 90%
13 | 549457 (kT*kT*kG*dA*dT*dT*dT*dA*dA*dT*dG*dG*dT*kT*kG*k[5mC]) [compound 549457] |  |  |  |  |  |  | 70 | 95 | 99 | 99 | 18 | % inhibition (AR mRNA [1]; 250 nM ASO, Table 7): 67%; % inhibition (AR mRNA [1]; [4]): 98%; % inhibition (AR mRNA [1]; 500 nM ASO, Table 5): 98%; percent inhibition of AR (AR mRNA [2]; 31.25 nM, Table 6): 40%; percent inhibition of AR (AR mRNA [2]; 31.25 nM, Table 8): 34%; percent inhibition of AR (AR mRNA [2]; 62.5 nM, Table 6): 57%; percent inhibition of AR (AR mRNA [2]; 62.5 nM, Table 8): 44%; percent inhibition of AR (AR mRNA [2]; 125.0 nM, Table 6): 78%; percent inhibition of AR (AR mRNA [2]; 125.0 nM, Table 8): 75%; percent inhibition of AR (AR mRNA [2]; 500.0 nM, Table 6): 96%; percent inhibition of AR (AR mRNA [2]; 500.0 nM, Table 8): 93%; percent inhibition of AR (AR mRNA [2]; 1000.0 nM, Table 6): 96%; percent inhibition of AR (AR mRNA [2]; 1000.0 nM, Table 8): 96%; IC50 (AR mRNA [2]; Table 6): 30 nM; IC50 (AR mRNA [2]; Table 8): 60 nM
14 | 549459 (kA*kT*kG*dG*dT*dT*dG*dA*dT*dT*dT*dA*dA*kT*kG*kG) [compound 549459] |  |  |  |  |  |  | 61 | 90 | 94 | 97 | 18 | % inhibition (AR mRNA [1]; [4]): 96%; % inhibition (AR mRNA [1]; 500 nM ASO, Table 5): 92%; percent inhibition of AR (AR mRNA [2]; 31.25 nM, Table 6): 16%; percent inhibition of AR (AR mRNA [2]; 62.5 nM, Table 6): 23%; percent inhibition of AR (AR mRNA [2]; 125.0 nM, Table 6): 50%; percent inhibition of AR (AR mRNA [2]; 500.0 nM, Table 6): 85%; percent inhibition of AR (AR mRNA [2]; 1000.0 nM, Table 6): 92%; IC50 (AR mRNA [2]; Table 6): 100 nM

— USRE48461E1, “Modulation of androgen receptor expression” (Ionis Pharmaceuticals, Inc., priority 2012, dated 2021)
